Data on one compound can be found in publication PMC12663298, “Sibiriline, a novel dual inhibitor of necroptosis and ferroptosis, prevents RIPK1 kinase activity and (phospho)lipid peroxidation as a potential therapeutic strategy” (Cell Death Discovery, 2025).

SMILES strings stand for the structures.

Common to all, as to format: biochemical
The target of one assay is ABL1 (Homo sapiens, UniProt P00519). In words: ADP-Glo kinase assay at KM,ATP.
In another assay the target is T1, PDGFR-β (Homo sapiens, UniProt P09619).
T1 construct: gene PDGFRB
In words: enzymatic kinase assay (Eurofins) at KM,ATP.

A further assay has as its target KIT (Homo sapiens, UniProt P10721). Description: enzymatic kinase assay (Eurofins) at KM,ATP.
For a further assay, the target named is T2, AURKC (Homo sapiens, UniProt Q9UQB9).
T2 sequence (Q9UQB9 1-309): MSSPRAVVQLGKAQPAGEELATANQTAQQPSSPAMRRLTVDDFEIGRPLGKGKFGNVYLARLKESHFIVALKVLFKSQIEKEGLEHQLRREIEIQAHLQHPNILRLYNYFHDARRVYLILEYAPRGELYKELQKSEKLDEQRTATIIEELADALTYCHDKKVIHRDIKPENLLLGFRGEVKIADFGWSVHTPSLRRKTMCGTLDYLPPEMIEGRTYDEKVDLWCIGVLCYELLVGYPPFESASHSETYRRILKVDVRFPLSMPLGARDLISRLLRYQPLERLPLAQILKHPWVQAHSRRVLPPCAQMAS
Description: enzymatic kinase assay (Eurofins) at KM,ATP.

The next assay has as its target T3, DRAK2 (Homo sapiens, UniProt O94768).
T3 construct: gene STK17B
T3 sequence (O94768 1-372): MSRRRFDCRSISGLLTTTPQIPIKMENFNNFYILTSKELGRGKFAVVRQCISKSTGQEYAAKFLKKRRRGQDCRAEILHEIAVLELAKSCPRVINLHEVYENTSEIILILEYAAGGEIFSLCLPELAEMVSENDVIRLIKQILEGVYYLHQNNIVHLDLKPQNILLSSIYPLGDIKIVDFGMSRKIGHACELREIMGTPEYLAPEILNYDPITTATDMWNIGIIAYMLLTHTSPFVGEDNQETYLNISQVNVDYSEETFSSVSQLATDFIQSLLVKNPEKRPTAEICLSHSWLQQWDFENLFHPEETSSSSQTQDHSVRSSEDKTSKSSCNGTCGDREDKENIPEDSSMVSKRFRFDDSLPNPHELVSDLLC
Description: enzymatic kinase assay (Eurofins) at KM,ATP.

The next assay has as its target JAK2 (Homo sapiens, UniProt O60674). Description: enzymatic kinase assay (Eurofins) at KM,ATP.

Chain of JAK2 (O60674 whole entry): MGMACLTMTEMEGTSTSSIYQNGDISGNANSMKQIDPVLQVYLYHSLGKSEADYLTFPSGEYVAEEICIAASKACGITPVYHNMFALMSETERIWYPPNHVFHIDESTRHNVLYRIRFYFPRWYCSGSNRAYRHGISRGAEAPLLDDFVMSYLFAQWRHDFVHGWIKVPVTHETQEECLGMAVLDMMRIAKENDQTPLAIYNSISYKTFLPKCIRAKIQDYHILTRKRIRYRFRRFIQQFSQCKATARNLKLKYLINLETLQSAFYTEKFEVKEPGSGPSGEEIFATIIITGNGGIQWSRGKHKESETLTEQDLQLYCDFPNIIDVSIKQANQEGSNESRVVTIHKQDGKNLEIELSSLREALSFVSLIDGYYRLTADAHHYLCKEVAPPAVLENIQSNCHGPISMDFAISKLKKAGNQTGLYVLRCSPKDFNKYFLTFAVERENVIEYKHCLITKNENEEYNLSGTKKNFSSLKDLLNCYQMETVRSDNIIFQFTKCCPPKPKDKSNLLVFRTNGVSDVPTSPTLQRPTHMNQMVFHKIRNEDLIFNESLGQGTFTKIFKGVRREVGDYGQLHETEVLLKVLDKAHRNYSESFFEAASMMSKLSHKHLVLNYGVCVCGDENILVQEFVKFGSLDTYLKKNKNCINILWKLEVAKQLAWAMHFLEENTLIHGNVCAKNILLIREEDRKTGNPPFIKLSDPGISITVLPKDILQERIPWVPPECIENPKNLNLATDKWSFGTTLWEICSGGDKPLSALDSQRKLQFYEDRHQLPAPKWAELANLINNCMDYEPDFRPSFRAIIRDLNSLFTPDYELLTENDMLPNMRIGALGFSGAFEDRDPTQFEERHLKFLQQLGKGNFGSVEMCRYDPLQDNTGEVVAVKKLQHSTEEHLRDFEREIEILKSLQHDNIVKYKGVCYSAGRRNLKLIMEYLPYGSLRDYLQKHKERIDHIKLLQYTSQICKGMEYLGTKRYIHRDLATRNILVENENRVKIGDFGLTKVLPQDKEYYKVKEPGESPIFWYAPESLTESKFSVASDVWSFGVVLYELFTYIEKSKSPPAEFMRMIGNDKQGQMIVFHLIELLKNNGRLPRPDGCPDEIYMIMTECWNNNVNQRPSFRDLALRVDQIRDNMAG
Chain of ABL1 (P00519 whole entry): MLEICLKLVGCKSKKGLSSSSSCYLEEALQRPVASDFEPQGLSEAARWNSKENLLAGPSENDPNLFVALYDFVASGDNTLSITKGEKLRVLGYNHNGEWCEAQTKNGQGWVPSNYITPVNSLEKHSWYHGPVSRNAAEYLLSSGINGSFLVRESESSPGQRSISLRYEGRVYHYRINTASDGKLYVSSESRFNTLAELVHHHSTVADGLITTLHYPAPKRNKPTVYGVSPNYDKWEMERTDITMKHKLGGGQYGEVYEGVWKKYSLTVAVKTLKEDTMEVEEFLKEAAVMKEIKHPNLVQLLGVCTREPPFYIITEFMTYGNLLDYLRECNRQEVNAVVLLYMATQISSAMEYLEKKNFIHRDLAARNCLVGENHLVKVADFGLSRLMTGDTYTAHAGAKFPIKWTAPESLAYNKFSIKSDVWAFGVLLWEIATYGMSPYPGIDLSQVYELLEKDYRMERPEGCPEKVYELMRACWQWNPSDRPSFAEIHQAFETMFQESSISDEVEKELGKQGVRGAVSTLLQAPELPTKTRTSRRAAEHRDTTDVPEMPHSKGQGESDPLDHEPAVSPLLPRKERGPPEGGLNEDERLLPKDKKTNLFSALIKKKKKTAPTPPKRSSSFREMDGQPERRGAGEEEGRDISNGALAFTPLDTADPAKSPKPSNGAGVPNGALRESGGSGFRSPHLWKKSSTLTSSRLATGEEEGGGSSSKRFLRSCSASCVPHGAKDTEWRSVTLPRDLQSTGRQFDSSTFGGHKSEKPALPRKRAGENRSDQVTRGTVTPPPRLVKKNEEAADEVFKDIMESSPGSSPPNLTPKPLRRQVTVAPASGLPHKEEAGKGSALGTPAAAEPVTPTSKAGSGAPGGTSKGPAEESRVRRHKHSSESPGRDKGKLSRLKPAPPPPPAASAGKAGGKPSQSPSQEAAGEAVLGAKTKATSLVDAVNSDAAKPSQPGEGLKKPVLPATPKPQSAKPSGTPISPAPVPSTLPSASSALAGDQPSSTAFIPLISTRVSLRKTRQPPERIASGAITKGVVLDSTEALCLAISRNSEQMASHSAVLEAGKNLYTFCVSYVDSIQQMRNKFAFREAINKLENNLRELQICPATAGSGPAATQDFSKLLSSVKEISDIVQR
Chain of KIT (P10721 26-976): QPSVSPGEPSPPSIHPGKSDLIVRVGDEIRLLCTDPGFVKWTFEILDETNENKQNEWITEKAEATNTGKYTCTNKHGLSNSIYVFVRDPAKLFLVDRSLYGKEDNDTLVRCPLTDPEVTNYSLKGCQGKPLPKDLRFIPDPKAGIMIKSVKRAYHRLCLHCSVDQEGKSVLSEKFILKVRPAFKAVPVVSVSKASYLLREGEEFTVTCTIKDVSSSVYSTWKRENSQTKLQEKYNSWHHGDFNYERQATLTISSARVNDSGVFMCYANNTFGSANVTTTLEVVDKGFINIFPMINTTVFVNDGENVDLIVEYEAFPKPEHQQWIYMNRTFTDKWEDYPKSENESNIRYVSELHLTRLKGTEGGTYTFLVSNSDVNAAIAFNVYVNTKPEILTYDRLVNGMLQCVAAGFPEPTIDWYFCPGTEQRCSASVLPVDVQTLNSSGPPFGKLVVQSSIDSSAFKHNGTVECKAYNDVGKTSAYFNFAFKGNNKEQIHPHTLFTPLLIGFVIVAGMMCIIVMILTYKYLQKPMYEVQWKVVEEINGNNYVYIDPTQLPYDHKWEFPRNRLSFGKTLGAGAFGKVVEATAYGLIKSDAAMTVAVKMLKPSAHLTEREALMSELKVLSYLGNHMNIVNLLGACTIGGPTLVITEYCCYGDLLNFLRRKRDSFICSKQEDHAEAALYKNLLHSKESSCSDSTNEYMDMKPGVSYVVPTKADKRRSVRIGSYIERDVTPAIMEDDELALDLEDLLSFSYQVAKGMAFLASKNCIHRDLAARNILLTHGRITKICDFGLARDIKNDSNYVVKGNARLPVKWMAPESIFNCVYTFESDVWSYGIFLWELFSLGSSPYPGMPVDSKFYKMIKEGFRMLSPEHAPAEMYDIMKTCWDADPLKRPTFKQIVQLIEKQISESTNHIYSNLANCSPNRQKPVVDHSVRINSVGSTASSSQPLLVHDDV
T1 sequence (P09619 33-1106): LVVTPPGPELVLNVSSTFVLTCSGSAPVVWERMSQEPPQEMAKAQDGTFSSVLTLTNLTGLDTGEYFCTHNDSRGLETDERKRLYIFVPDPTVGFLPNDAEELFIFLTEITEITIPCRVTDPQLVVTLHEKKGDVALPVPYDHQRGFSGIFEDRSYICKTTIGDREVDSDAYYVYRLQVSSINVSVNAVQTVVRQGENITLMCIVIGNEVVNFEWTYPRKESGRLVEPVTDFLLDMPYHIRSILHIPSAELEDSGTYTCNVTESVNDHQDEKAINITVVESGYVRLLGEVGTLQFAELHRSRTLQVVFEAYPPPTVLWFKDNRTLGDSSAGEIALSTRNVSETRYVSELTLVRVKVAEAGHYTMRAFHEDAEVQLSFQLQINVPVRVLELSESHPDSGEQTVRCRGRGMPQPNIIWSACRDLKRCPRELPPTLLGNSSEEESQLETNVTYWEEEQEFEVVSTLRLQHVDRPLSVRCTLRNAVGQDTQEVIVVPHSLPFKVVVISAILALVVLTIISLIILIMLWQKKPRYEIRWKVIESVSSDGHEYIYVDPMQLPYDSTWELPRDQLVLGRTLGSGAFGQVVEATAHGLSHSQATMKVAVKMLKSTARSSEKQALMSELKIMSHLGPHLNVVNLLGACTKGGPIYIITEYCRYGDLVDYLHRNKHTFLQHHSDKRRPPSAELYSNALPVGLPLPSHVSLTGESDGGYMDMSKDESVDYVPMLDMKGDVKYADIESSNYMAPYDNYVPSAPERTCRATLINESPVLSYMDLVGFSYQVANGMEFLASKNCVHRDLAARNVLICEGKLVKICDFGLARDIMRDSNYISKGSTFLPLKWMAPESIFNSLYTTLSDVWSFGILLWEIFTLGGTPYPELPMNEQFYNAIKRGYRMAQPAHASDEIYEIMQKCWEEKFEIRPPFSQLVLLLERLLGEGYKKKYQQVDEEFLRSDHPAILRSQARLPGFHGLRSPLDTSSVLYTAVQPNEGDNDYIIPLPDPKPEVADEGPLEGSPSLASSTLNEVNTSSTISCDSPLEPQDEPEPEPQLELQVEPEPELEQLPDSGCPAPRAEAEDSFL

As to `Oc1ccc(-c2cc3cccnc3[nH]2)cc1` [compound 1, 4-(1H-pyrrolo[2,3-b]pyridin-2-yl)phenol], the IC50 entry against ABL1, against PDGFR-β, against KIT, against AURKC, against DRAK2 and against JAK2 was “All kinases tested showed inhibition in the µM range” each time.
